According to ChEMBL document CHEMBL1201861, “Genomics of Drug Sensitity in Cancer screening data, Wellcome Trust Sanger Institute”:
pIC50: −log10 of the molar value. “And” between values parts separate entries of the source, which are not always exact repeats. Identical values can stand only once. Where a SMILES comes first, the peptide text is derived from it. The star is where a group is joined. Cbz = O=C(OCc1ccccc1)*

Columns and labels:
LC4-1 = assay: cells; format: functional, cell-based, Homo sapiens;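 further: growth inhibition of LC4-1 cells, read out with a cell viability assay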
Description: SANGER: Inhibition of human LC4-1 cell growth in a cell viability assay.

MHH-CALL-2 = assay: cells; format: functional, cell-based, Homo sapiens;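 further: growth inhibition of the cell line, read out in a cell viability assay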
Description: SANGER: Inhibition of human MHH-CALL-2 cell growth in a cell viability assay.

NB1 = assay: cells; format: functional, cell-based, Homo sapiens
Description: SANGER: Inhibition of human NB1 cell growth in a cell viability assay.

LC-1F = assay: cells; format: functional, cell-based, Homo sapiens;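 further: growth inhibition of human LC-1F cells, read out with a cell viability assay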
Description: SANGER: Inhibition of human LC-1F cell growth in a cell viability assay.

HCC1599 = assay: cells; format: functional, cell-based, Homo sapiens;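 further: growth inhibition of HCC1599 cells, read out in a cell viability assay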
Description: SANGER: Inhibition of human HCC1599 cell growth in a cell viability assay.

ECC4 = assay: cells; format: functional, cell-based, Homo sapiens;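 further: growth inhibition of ECC4 cells, read out with a cell viability assay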
Description: SANGER: Inhibition of human ECC4 cell growth in a cell viability assay.

EC-GI-10 = assay: cells; format: functional, cell-based, Homo sapiens
Description: SANGER: Inhibition of human EC-GI-10 cell growth in a cell viability assay.

KMS-12-PE = assay: cells; format: functional, cell-based, Homo sapiens;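 further: growth inhibition of human KMS-12-PE cells, measured with a cell viability assay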
Description: SANGER: Inhibition of human KMS-12-PE cell growth in a cell viability assay.

MDA-MB-134-VI = assay: cells; format: functional, cell-based, Homo sapiens
Description: SANGER: Inhibition of human MDA-MB-134-VI cell growth in a cell viability assay.

EVSA-T = assay: cells; format: functional, cell-based, Homo sapiens;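 further: growth inhibition of EVSA-T cells, read out with a cell viability assay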
Description: SANGER: Inhibition of human EVSA-T cell growth in a cell viability assay.

CP66-MEL = assay: cells; format: functional, cell-based; conditions: Homo sapiens;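 further: growth inhibition of CP66-MEL cells determined in a cell viability assay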
Description: SANGER: Inhibition of human CP66-MEL cell growth in a cell viability assay.

CESS = assay: SANGER: Inhibition of human CESS cell growth in a cell viability assay.; format: functional, cell-based
COR-L279 = assay: SANGER: Inhibition of human COR-L279 cell growth in a cell viability assay.; format: functional, cell-based
RPMI 8402 = assay: SANGER: Inhibition of human RPMI-8402 cell growth in a cell viability assay.; format: functional, cell-based
YT = assay: cells; format: functional, cell-based, Homo sapiens
Description: SANGER: Inhibition of human YT cell growth in a cell viability assay.

HuO9 = assay: cells; format: functional, cell-based; conditions: Homo sapiens;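 further: growth inhibition of HuO9 cells, read out with a cell viability assay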
Description: SANGER: Inhibition of human HuO9 cell growth in a cell viability assay.

SNU-423 = assay: cells; format: functional, cell-based; conditions: Homo sapiens
Description: SANGER: Inhibition of human SNU-423 cell growth in a cell viability assay.

SW948 = assay: cells; format: functional, cell-based; conditions: Homo sapiens;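 further: growth inhibition of SW948 cells, read out with a cell viability assay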
Description: SANGER: Inhibition of human SW948 cell growth in a cell viability assay.

Ca9-22 = assay: cells; format: functional, cell-based; conditions: Homo sapiens;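 further: growth inhibition of Ca9-22 cells, read out with a cell viability assay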
Description: SANGER: Inhibition of human Ca9-22 cell growth in a cell viability assay.

SF-295 = assay: cells; format: functional, cell-based; conditions: Homo sapiens;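 further: growth inhibition of SF-295 cells, read out with a cell viability assay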
Description: SANGER: Inhibition of human SF295 cell growth in a cell viability assay.

COLO-678 = assay: cells; format: functional, cell-based; conditions: Homo sapiens
Description: SANGER: Inhibition of human COLO-678 cell growth in a cell viability assay.

UACC-62 = assay: cells; format: functional, cell-based; conditions: Homo sapiens;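 further: growth inhibition of human UACC-62 cells, read out by a cell viability assay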
Description: SANGER: Inhibition of human UACC-62 cell growth in a cell viability assay.

HTC-C3 = assay: cells; format: functional, cell-based; conditions: Homo sapiens;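 further: inhibition of cell growth, read out with a cell viability assay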
Description: SANGER: Inhibition of human HTC-C3 cell growth in a cell viability assay.

SK-MEL-30 = assay: cells; format: functional, cell-based; conditions: Homo sapiens;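 further: growth inhibition of SK-MEL-30 cells, determined with a cell viability assay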
Description: SANGER: Inhibition of human SK-MEL-30 cell growth in a cell viability assay.

HCC38 = assay: cells; format: functional, cell-based; conditions: Homo sapiens;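 further: cell viability assay on the human HCC38 cell line, with IC50 marking the concentration that inhibits cell growth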
Description: SANGER: Inhibition of human HCC38 cell growth in a cell viability assay.

HSC-3 = assay: cells; format: functional, cell-based; conditions: Homo sapiens
Description: SANGER: Inhibition of human HSC-3 cell growth in a cell viability assay.

OE19 = assay: cells; format: functional, cell-based; conditions: Homo sapiens;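 further: growth inhibition of OE19 cells, measured through a cell viability read-out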
Description: SANGER: Inhibition of human OE19 cell growth in a cell viability assay.

NCI-H1573 = assay: cells; format: functional, cell-based; conditions: Homo sapiens;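 further: growth inhibition of NCI-H1573 cells, read out with a cell viability assay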
Description: SANGER: Inhibition of human NCI-H1573 cell growth in a cell viability assay.

HOS = assay: cells; format: functional, cell-based; conditions: Homo sapiens;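 further: growth inhibition of human HOS cells, read out with a cell viability assay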
Description: SANGER: Inhibition of human HOS cell growth in a cell viability assay.

HCC1937 = assay: cells; format: functional, cell-based; conditions: Homo sapiens;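 further: growth inhibition measured with a cell viability read-out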
Description: SANGER: Inhibition of human HCC1937 cell growth in a cell viability assay.

BHY = assay: cells; format: functional, cell-based; conditions: Homo sapiens;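 further: cell growth inhibition read out by a viability assay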
Description: SANGER: Inhibition of human BHY cell growth in a cell viability assay.

AN3-CA = assay: cells; format: functional, cell-based; conditions: Homo sapiens;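 further: growth inhibition of human AN3-CA cells measured by a cell viability assay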
Description: SANGER: Inhibition of human AN3-CA cell growth in a cell viability assay.

CAL-72 = assay: cells; format: functional, cell-based; conditions: Homo sapiens;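 further: cell viability assay measuring inhibition of proliferation in the CAL-72 cell line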
Description: SANGER: Inhibition of human CAL-72 cell growth in a cell viability assay.

CAMA-1 = assay: cells; format: functional, cell-based; conditions: Homo sapiens;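 further: growth inhibition of CAMA-1 cells, read out with a cell viability assay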
Description: SANGER: Inhibition of human CAMA-1 cell growth in a cell viability assay.

CHL-1 = assay: cells; format: functional, cell-based; conditions: Homo sapiens;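 further: cell growth inhibition, read out with a cell viability assay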
Description: SANGER: Inhibition of human CHL-1 cell growth in a cell viability assay.

SiHa = assay: cells; format: functional, cell-based; conditions: Homo sapiens;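 further: Viability-based readout of growth inhibition in SiHa cells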
Description: SANGER: Inhibition of human SiHa cell growth in a cell viability assay.

SJRH30 = assay: cells; format: functional, cell-based; conditions: Homo sapiens;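 further: growth inhibition of human SJRH30 cells, read out with a cell viability assay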
Description: SANGER: Inhibition of human SJRH30 cell growth in a cell viability assay.

NCI-H727 = assay: cells; format: functional, cell-based; conditions: Homo sapiens;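 further: growth inhibition of human NCI-H727 cells, read out with a cell viability assay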
Description: SANGER: Inhibition of human NCI-H727 cell growth in a cell viability assay.

HGC-27 = assay: cells; format: functional, cell-based; conditions: Homo sapiens;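 further: growth inhibition of human HGC-27 cells, read out in a cell viability assay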
Description: SANGER: Inhibition of human HGC-27 cell growth in a cell viability assay.

SK-N-AS = assay: cells; format: functional, cell-based; conditions: Homo sapiens;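 further: growth inhibition of human SK-N-AS cells, measured with a cell viability assay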
Description: SANGER: Inhibition of human SK-N-AS cell growth in a cell viability assay.

WM-115 = assay: cells; format: functional, cell-based; conditions: Homo sapiens
Description: SANGER: Inhibition of human WM-115 cell growth in a cell viability assay.

C3A = assay: cells; format: functional, cell-based; conditions: Homo sapiens;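 further: growth inhibition of C3A human cells, quantified with a cell viability readout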
Description: SANGER: Inhibition of human C3A cell growth in a cell viability assay.

MDA-MB-415 = assay: cells; format: functional, cell-based; conditions: Homo sapiens
HOP-92 = assay: cells; format: functional, cell-based; conditions: Homo sapiens;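 further: cell viability readout, with IC50 reflecting inhibition of HOP-92 cell growth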
Description: SANGER: Inhibition of human HOP-92 cell growth in a cell viability assay.

NB12 = assay: cells; format: functional, cell-based; conditions: Homo sapiens;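 further: growth inhibition of human NB12 cells, read out by a cell viability assay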
Description: SANGER: Inhibition of human NB12 cell growth in a cell viability assay.

NY = assay: cells; format: functional, cell-based; conditions: Homo sapiens
Description: SANGER: Inhibition of human NY cell growth in a cell viability assay.

TCC-SUP = assay: cells; format: functional, cell-based; conditions: Homo sapiens;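 further: growth inhibition of TCC-SUP cells, read out with a cell viability assay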
Description: SANGER: Inhibition of human TCCSUP cell growth in a cell viability assay.

DU-145 = assay: cells; format: functional, cell-based; conditions: Homo sapiens
Description: SANGER: Inhibition of human DU-145 cell growth in a cell viability assay.

AGS = assay: cells; format: functional, cell-based; conditions: Homo sapiens;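 further: growth inhibition of AGS cells, determined with a cell viability assay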
Description: SANGER: Inhibition of human AGS cell growth in a cell viability assay.

NCI-H2122 = assay: cells; format: functional, cell-based; conditions: Homo sapiens;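 further: growth inhibition of the cells, read out with a cell viability assay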
Description: SANGER: Inhibition of human NCI-H2122 cell growth in a cell viability assay.

CAL-54 = assay: cells; format: functional, cell-based; conditions: Homo sapiens;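 further: growth inhibition of CAL-54 cells, read out by a viability measurement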
Description: SANGER: Inhibition of human CAL-54 cell growth in a cell viability assay.

H4 = assay: cells; format: functional, cell-based; conditions: Homo sapiens
Description: SANGER: Inhibition of human H4 cell growth in a cell viability assay.

GAMG = assay: cells; format: functional, cell-based; conditions: Homo sapiens;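 further: cell growth inhibition measured by a viability assay in the GAMG human cell line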
Description: SANGER: Inhibition of human GAMG cell growth in a cell viability assay.

NCI-H1623 = assay: cells; format: functional, cell-based; conditions: Homo sapiens;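 further: cell viability assay used as the read-out for growth inhibition of NCI-H1623 cells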
Description: SANGER: Inhibition of human NCI-H1623 cell growth in a cell viability assay.

ABC-1 = assay: cells; format: functional, cell-based; conditions: Homo sapiens;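 further: growth inhibition of human ABC-1 cells, read out by a cell viability assay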
Description: SANGER: Inhibition of human ABC-1 cell growth in a cell viability assay.

SW1088 = assay: cells; format: functional, cell-based; conditions: Homo sapiens;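 further: growth inhibition of human SW1088 cells, read out by a cell viability assay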
Description: SANGER: Inhibition of human SW1088 cell growth in a cell viability assay.

C=CC(=O)N1CCCC(Nc2nc(Nc3ccc(N(C)C(=O)CC)cc3)nc3[nH]cnc23)C1 (centres undefined)
pIC50 (LC4-1; Homo sapiens, LC4-1): < 4.99
pIC50 (MHH-CALL-2; Homo sapiens, MHH-CALL-2): < 4.99
pIC50 (NB1; Homo sapiens, NB1): < 4.99
pIC50 (LC-1F; Homo sapiens, LC-1F): < 4.99
pIC50 (HCC1599; Homo sapiens, HCC1599): < 4.99
pIC50 (ECC4; Homo sapiens, ECC4): < 4.99
pIC50 (EC-GI-10; Homo sapiens, EC-GI-10): < 4.99
pIC50 (KMS-12-PE; Homo sapiens, KMS-12-PE): < 4.99
pIC50 (MDA-MB-134-VI; Homo sapiens, MDA-MB-134-VI): < 4.99
pIC50 (EVSA-T; Homo sapiens, EVSA-T): < 4.99
pIC50 (CP66-MEL): < 4.99
pIC50 (CESS; Homo sapiens, CESS): < 4.99
pIC50 (COR-L279; Homo sapiens, COR-L279): < 4.99
pIC50 (RPMI 8402; Homo sapiens, RPMI 8402): < 4.99
pIC50 (YT; Homo sapiens, YT): < 4.99

Cc1ccc(NC(=O)c2ccc(CN3CCN(C)CC3)cc2)cc1Nc1nccc(-c2cccnc2)n1 [IMATINIB]
pIC50 (LC4-1; Homo sapiens, LC4-1): < 5.70
pIC50 (MHH-CALL-2; Homo sapiens, MHH-CALL-2): < 5.70
pIC50 (NB1; Homo sapiens, NB1): < 5.70
pIC50 (LC-1F; Homo sapiens, LC-1F): < 5.70
pIC50 (HCC1599; Homo sapiens, HCC1599): < 5.70
pIC50 (ECC4; Homo sapiens, ECC4): < 5.70
pIC50 (EC-GI-10; Homo sapiens, EC-GI-10): < 5.70
pIC50 (KMS-12-PE; Homo sapiens, KMS-12-PE): < 5.70
pIC50 (MDA-MB-134-VI; Homo sapiens, MDA-MB-134-VI): < 5.70
pIC50 (EVSA-T; Homo sapiens, EVSA-T): < 5.70
pIC50 (CP66-MEL): < 5.70
pIC50 (CESS; Homo sapiens, CESS): < 5.70
pIC50 (COR-L279; Homo sapiens, COR-L279): < 5.70
pIC50 (RPMI 8402; Homo sapiens, RPMI 8402): < 5.70
pIC50 (YT; Homo sapiens, YT): < 5.70

CN(C)CCOc1ccc(-c2nc(-c3ccncc3)c(-c3ccc4c(c3)CC/C4=N\O)[nH]2)cc1 [SB590885]
pIC50 (HuO9): < 5.30
pIC50 (SNU-423): < 5.30
pIC50 (SW948): < 5.30
pIC50 (Ca9-22): < 5.30
pIC50 (SF-295): < 5.30
pIC50 (COLO-678): < 5.30
pIC50 (UACC-62): < 5.30
pIC50 (HTC-C3): < 5.30
pIC50 (SK-MEL-30): 5.81
pIC50 (HCC38): < 5.30
pIC50 (HSC-3): < 5.30
pIC50 (OE19): < 5.30
pIC50 (NCI-H1573): < 5.30
pIC50 (HOS): < 5.30
pIC50 (HCC1937): < 5.30
pIC50 (BHY): < 5.30
pIC50 (AN3-CA): < 5.30
pIC50 (CAL-72): < 5.30
pIC50 (CAMA-1): < 5.30
pIC50 (CHL-1): < 5.30
pIC50 (SiHa): < 5.30
pIC50 (SJRH30): < 5.30
pIC50 (NCI-H727): < 5.30
pIC50 (HGC-27): < 5.30
pIC50 (SK-N-AS): < 5.30
pIC50 (WM-115): 6.07
pIC50 (C3A): < 5.30
pIC50 (MDA-MB-415): < 5.30
pIC50 (HOP-92): 5.95
pIC50 (NB12): < 5.30
pIC50 (NY): < 5.30
pIC50 (TCC-SUP): < 5.30
pIC50 (DU-145): < 5.30
pIC50 (AGS): < 5.30
pIC50 (NCI-H2122): < 5.30
pIC50 (CAL-54): < 5.30
pIC50 (H4): < 5.30
pIC50 (GAMG): < 5.30
pIC50 (NCI-H1623): < 5.30
pIC50 (ABC-1): < 5.30
pIC50 (SW1088): < 5.30

NC1(c2ccc(-c3nc4ccn5c(=O)[nH]nc5c4cc3-c3ccccc3)cc2)CCC1 [MK-2206]
pIC50 (HuO9): 6.03
pIC50 (SNU-423): 5.54
pIC50 (SW948): < 5.40
pIC50 (Ca9-22): < 5.40
pIC50 (SF-295): < 5.40
pIC50 (COLO-678): < 5.40
pIC50 (UACC-62): < 5.40
pIC50 (HTC-C3): < 5.40
pIC50 (SK-MEL-30): < 5.40
pIC50 (HCC38): < 5.40
pIC50 (HSC-3): < 5.40
pIC50 (OE19): < 5.40
pIC50 (NCI-H1573): < 5.40
pIC50 (HOS): 5.83
pIC50 (HCC1937): < 5.40
pIC50 (BHY): < 5.40
pIC50 (AN3-CA): 5.44
pIC50 (CAL-72): < 5.40
pIC50 (CAMA-1): < 5.40
pIC50 (CHL-1): < 5.40
pIC50 (SiHa): < 5.40
pIC50 (SJRH30): 5.43
pIC50 (NCI-H727): < 5.40
pIC50 (HGC-27): 6.25
pIC50 (SK-N-AS): < 5.40
pIC50 (WM-115): < 5.40
pIC50 (C3A): < 5.40
pIC50 (MDA-MB-415): 6.20
pIC50 (HOP-92): 6.06
pIC50 (NB12): < 5.40
pIC50 (NY): < 5.40
pIC50 (TCC-SUP): < 5.40
pIC50 (DU-145): 6.19
pIC50 (AGS): 5.57
pIC50 (NCI-H2122): < 5.40
pIC50 (CAL-54): 5.77
pIC50 (H4): 5.46
pIC50 (GAMG): 5.65
pIC50 (NCI-H1623): 5.47
pIC50 (ABC-1): 5.63
pIC50 (SW1088): 5.71

COc1ccc(N(C(=O)Oc2c(C)cccc2C)c2ccnc(Nc3ccc(N4CCN(C)CC4)cc3)n2)c(OC)c1
pIC50 (LC4-1; Homo sapiens, LC4-1): < 5.29
pIC50 (MHH-CALL-2; Homo sapiens, MHH-CALL-2): < 5.29
pIC50 (NB1; Homo sapiens, NB1): < 5.29
pIC50 (LC-1F; Homo sapiens, LC-1F): < 5.29
pIC50 (HCC1599; Homo sapiens, HCC1599): < 5.29
pIC50 (ECC4; Homo sapiens, ECC4): < 5.29
pIC50 (EC-GI-10; Homo sapiens, EC-GI-10): < 5.29
pIC50 (KMS-12-PE; Homo sapiens, KMS-12-PE): < 5.29
pIC50 (MDA-MB-134-VI; Homo sapiens, MDA-MB-134-VI): < 5.29
pIC50 (EVSA-T; Homo sapiens, EVSA-T): < 5.29
pIC50 (CP66-MEL): < 5.29
pIC50 (CESS; Homo sapiens, CESS): < 5.29
pIC50 (COR-L279; Homo sapiens, COR-L279): < 5.29
pIC50 (RPMI 8402; Homo sapiens, RPMI 8402): < 5.29
pIC50 (YT; Homo sapiens, YT): < 5.29

CC(C)C[C@@H](C=O)NC(=O)[C@H](CC(C)C)NC(=O)[C@H](CC(C)C)NC(=O)OCc1ccccc1 [MG-132] (Cbz-Leu-Leu-Leu-aldehyde)
pIC50 (LC4-1; Homo sapiens, LC4-1): 6.36
pIC50 (LC4-1; lc4-1): 6.13
pIC50 (MHH-CALL-2; mhh-call-2): < 6.00
pIC50 (NB1; nb1): < 6.00
pIC50 (LC-1F; lc-1f): < 6.00
pIC50 (HCC1599; hcc1599): < 6.00
pIC50 (ECC4; ecc4): < 6.00
pIC50 (EC-GI-10; Homo sapiens, EC-GI-10): < 6.00
pIC50 (EC-GI-10; ec-gi-10): < 6.00
pIC50 (KMS-12-PE; kms-12-pe): < 6.00
pIC50 (MDA-MB-134-VI; mda-mb-134-vi): < 6.00
pIC50 (EVSA-T; evsa-t): 6.30 and < 6.00
pIC50 (NB12): < 6.00
pIC50 (CESS; cess): 6.77 and < 6.00
pIC50 (COR-L279; cor-l279): < 6.00
pIC50 (RPMI 8402; rpmi-8402): < 6.00
pIC50 (YT; yt): < 6.00
